The record followed here is US6677460B1, “Aromatic carboxylic acid bicyclic sulfur compounds” (Idemitsu Kosan Company, Limited, priority 1993, dated 2004).

Usually melting point stands for the temperature, or range, at which the solid turns liquid.

Data set [1] concerns corn. As to the kind of experiment: Upland soil treatment test (5), phytotoxicity. Particulars: dosage 100 g a.i./hectare, 20th day after treatment. The class given is in vivo. As for the experimental part: (§1) 90 Parts by weight of the above carrier and 10 parts by weight of each of Compounds obtained in the above Preparation Examples were uniformly pulverized and mixed to obtain herbicides. Further, for Herbicide Comparative Examples, comparative herbicides were prepared by uniformly pulverizing and mixing 90 parts by weight of the above carrier and 10 parts by weight of each of the following Compounds x, y, A, B and C.
(§2) (5) Biological Test (Upland Soil Treatment Test, Herbicide Examples 10-26 and Comparative Example 9)
(§3) Seeds of weeds such as large crabgrass, barnyard grass, green foxtail, cocklebur, velvetleaf and slender amaranth and seeds of corn, wheat and barley were sown in 1/5,000-are Wagner pots filled with upland soil, and covered with upland soil. Then, a predetermined amount of the herbicide prepared in the above (1) was suspended in water and uniformly sprayed onto the soil surface. Thereafter, the plants were grown in the greenhouse, and on 20th day after the treatment, the herbicide was evaluated for herbicidal efficacy.
(§4) The dosage of each herbicide is indicated as an amount of the active ingredient per hectare. Further, air-dried weight were measured, and herbicidal efficacy and the pytotoxicity to corn are shown on the basis of the ratings described below.

The subject of data set [2] is green foxtail. As to the kind of experiment: Upland soil treatment test (5). Note: ranges in brackets are in %. The following applies: dosage 100 g a.i./hectare, 20th day after treatment. The class given is in vivo. The procedure:
as §1, §2, §3, §4

Data set [3] concerns cocklebur. As to the kind of experiment: Upland soil treatment test (5). Note: ranges in brackets are in %. The class given is in vivo. The following applies: dosage 100 g a.i./hectare, 20th day after treatment. The procedure: as §1, §2, §3, §4
Data set [4] has as its system velvetleaf. As to the kind of experiment: Upland soil treatment test (5). Note: ranges in brackets are in %. The class given is in vivo. The following applies: dosage 100 g a.i./hectare, 20th day after treatment. As for the experimental part: as §1, §2, §3, §4
Data set [5] relates to barnyard grass. As to the kind of experiment: Upland soil treatment test (5). Note: ranges in brackets are in %. The class given is in vivo. Particulars: dosage 100 g a.i./hectare, 20th day after treatment. As for the experimental part: as §1, §2, §3, §4
Data set [6] has as its system slender amaranth. As to the kind of experiment: Upland soil treatment test (5). Note: ranges in brackets are in %. The class given is in vivo. Particulars: dosage 100 g a.i./hectare, 20th day after treatment. The procedure: as §1, §2, §3, §4
The subject of data set [7] is large crabgrass. Kind of data set: Upland soil treatment test (5). Note: ranges in brackets are in %. Particulars: dosage 100 g a.i./hectare, 20th day after treatment. The class given is in vivo. As for the experimental part:
as §1, §2, §3, §4

For data set [8], the system named is green foxtail. Kind of data set: Upland soil treatment test (6). Note: ranges in brackets are in %. The class given is in vivo. The following applies: 100 g/hectare, 20th day after treatment. The procedure: as §1
(§5) (6) Biological Test (Upland Soil Treatment Test, Herbicide Examples 27˜42 and Comparative Example 10).
(§6) Seeds of weeds such as large crabgrass, barnyard grass, green foxtail, cocklebur , velvetleaf and slender amaranth and seeds of corn, wheat and barley were sown in 1/5,000-are Wagner pots filled with upland soil, and covered with upland soil. Then, a predetermined amount of the herbicide prepared in the above (1) was suspended in water and uniformly sprayed onto the soil surface. Thereafter, the plants were grown in the greenhouse, and on 20th day after the treatment, the herbicide was evaluated f or herbicidal efficacy.
(§7) The dosage of each herbicide is indicated as an amount of the active ingredient per hectare. Further, air-dried weight were measured and the herbicidal efficacy and the phytotoxicity to corn are shown on the basis of the ratings described below.

Data set [9] has as its system cocklebur. Kind of data set: Upland soil treatment test (6). Note: ranges in brackets are in %. The class given is in vivo. Particulars: 100 g/hectare, 20th day after treatment. As for the experimental part: as §1, §5, §6, §7
The subject of data set [10] is velvetleaf. As to the kind of experiment: Upland soil treatment test (6). Note: ranges in brackets are in %. The class given is in vivo. The following applies: 100 g/hectare, 20th day after treatment. As for the experimental part: as §1, §5, §6, §7
For data set [11], the system named is barnyard grass. As to the kind of experiment: Upland soil treatment test (6). Note: ranges in brackets are in %. The class given is in vivo. Particulars: 100 g/hectare, 20th day after treatment. The procedure:
as §1, §5, §6, §7

Data set [12] concerns slender amaranth. Kind of data set: Upland soil treatment test (6). Note: ranges in brackets are in %. The class given is in vivo. The following applies: 100 g/hectare, 20th day after treatment. As for the experimental part:
as §1, §5, §6, §7

The test system of data set [13] is large crabgrass. As to the kind of experiment: Upland soil treatment test (6). Note: ranges in brackets are in %. The class given is in vivo. The following applies: 100 g/hectare, 20th day after treatment. As for the experimental part:
as §1, §5, §6, §7

The subject of data set [14] is corn. As to the kind of experiment: Upland soil treatment test (6), phytotoxicity. Note: ranges in brackets are in %. The class given is in vivo. Particulars: 100 g/hectare, 20th day after treatment. As for the experimental part:
as §1, §5, §6, §7

As to `CCn1ncc(C(=O)c2cc(C)c3c(c2C)C(C)(C)CCS3(=O)=O)c1OC(C)=O` [Compound 18, 4,4,5,8-tetramethyl-6-(1-ethyl-5-acetoxypyrazol-4-yl)carbonylthiochroman-1,1-dioxide], the melting point lay within 187.7 to 191.4 °C. For the same compound, the Phyto-toxicity to corn with corn [1] is reported as 0 (100). The “Herbicidal Efficacy green foxtail” value in the data set with green foxtail [2] is given as 4 (1-20). Besides, the Herbicidal Efficacy cocklebur in the data set on cocklebur [3] was 5 (0). For the same compound, in the data set with velvetleaf [4], the Herbicidal Efficacy velvetleaf is recorded as 5 (0). Also, in the data set on barnyard grass [5], the “Herbicidal Efficacy barnyard grass” value is 5 (0). The “Herbicidal Efficacy slender amaranth” value in the data set on slender amaranth [6] was 5 (0). In addition, the “Herbicidal Efficacy large crabgrass” value in the data set with large crabgrass [7] is listed as 5 (0).
As for `CCC(=O)Oc1c(C(=O)c2cc(C)c3c(c2C)C(C)(C)CCS3)cnn1CC` [Compound 19], the melting point is 178 to 179.6 °C. For the same compound, in the data set with corn [1], the Phyto-toxicity to corn was 0 (100). The “Herbicidal Efficacy green foxtail” value with green foxtail [2] was 2 (41-60). Also, in the data set on cocklebur [3], the Herbicidal Efficacy cocklebur is 5 (0). Further, the Herbicidal Efficacy velvetleaf with velvetleaf [4] was 5 (0). The “Herbicidal Efficacy barnyard grass” value in the data set on barnyard grass [5] is given as 5 (0). The “Herbicidal Efficacy slender amaranth” value in the data set on slender amaranth [6] is reported as 5 (0). Besides, the “Herbicidal Efficacy large crabgrass” value in the data set on large crabgrass [7] was 5 (0).
As for `CCCS(=O)(=O)Oc1c(C(=O)c2cc(C)c3c(c2C)C(C)(C)CCS3(=O)=O)c(C)nn1C` [Compound 30, 4,4,5,8-tetramethyl-6-(1,3-dimethyl-5-n-propanesulfonyloxypyrazol-4-yl)carbonylthiochroman-1,1-dioxide], the “Herbicidal efficacy (C): green foxtail” value in the data set with green foxtail [8] is reported as 3 (21-40). Further, the “Herbicidal efficacy (D): cocklebur” value in the data set with cocklebur [9] is given as 1 (61-80). The “Herbicidal efficacy (E): velvetleaf” value with velvetleaf [10] is reported as 5 (0). Further, the “Herbicidal efficacy (B): barnyard grass” value with barnyard grass [11] was 4 (1-20). The “Herbicidal efficacy (F): slender amaranth” value (from here on “Herbicidal efficacy (F)”) in the data set on slender amaranth [12] was 5 (0). Also, the “Herbicidal efficacy (A): large crabgrass” value in the data set on large crabgrass [13] is given as 5 (0). Moreover, the Phytotoxicity to corn with corn [14] is on record as 0 (100).
For the compound `Cc1ccc(S(=O)(=O)Oc2c(C(=O)c3cc(C)c4c(c3C)C(C)(C)CCS4)c(C)nn2C)cc1` [Compound 31], in the data set with green foxtail [8], the “Herbicidal efficacy (C): green foxtail” value is listed as 3 (21-40). For the same compound, in the data set on cocklebur [9], the “Herbicidal efficacy (D): cocklebur” value is reported as 1 (61-80). Moreover, the “Herbicidal efficacy (E): velvetleaf” value in the data set with velvetleaf [10] is on record as 4 (1-20). Also, in the data set on barnyard grass [11], the “Herbicidal efficacy (B): barnyard grass” value is given as 4 (1-20). Also, in the data set with slender amaranth [12], the “Herbicidal efficacy (F)” value is on record as 5 (0). Moreover, the “Herbicidal efficacy (A): large crabgrass” value in the data set with large crabgrass [13] was 5 (0). In the data set on corn [14], the Phytotoxicity to corn is recorded as 0 (100).
In the case of `CCn1ncc(C(=O)c2cc(C)c3c(c2C)C(C)CCS3(=O)=O)c1O` (centres unmarked) [Compound 44, 4,5,8-trimethyl-6-(1-ethyl-5-hydroxypyrazol-4-yl)carbonylthiochroman-1,1-dioxide], the “Herbicidal efficacy (C): green foxtail” value in the data set on green foxtail [8] was 5 (0). Besides, the “Herbicidal efficacy (D): cocklebur” value in the data set on cocklebur [9] is on record as 5 (0). Further, the “Herbicidal efficacy (E): velvetleaf” value with velvetleaf [10] was 5 (0). Besides, in the data set with barnyard grass [11], the “Herbicidal efficacy (B): barnyard grass” value was 5 (0). Moreover, the “Herbicidal efficacy (F)” value in the data set with slender amaranth [12] is given as 5 (0). Further, the “Herbicidal efficacy (A): large crabgrass” value in the data set on large crabgrass [13] is reported as 5 (0). For the same compound, the Phytotoxicity to corn with corn [14] is 0 (100).
`CCn1ncc(C(=O)c2ccc3c(c2C)CCCS3(=O)=O)c1O` [Compound 48, 5-Methyl-6-(1-ethyl-5-hydroxypyrazol-4-yl)carbonylthiochroman-1,1-dioxide]: the “Herbicidal efficacy (C): green foxtail” value in the data set on green foxtail [8] is recorded as 1 (61-80). Also, in the data set with cocklebur [9], the “Herbicidal efficacy (D): cocklebur” value was 1 (61-80). The “Herbicidal efficacy (E): velvetleaf” value in the data set with velvetleaf [10] is listed as 5 (0). In the data set with barnyard grass [11], the “Herbicidal efficacy (B): barnyard grass” value is 5 (0). The “Herbicidal efficacy (F)” value in the data set with slender amaranth [12] is 5 (0). In the data set on large crabgrass [13], the “Herbicidal efficacy (A): large crabgrass” value is 5 (0). Also, the Phytotoxicity to corn in the data set on corn [14] is listed as 0 (100).
